Converted amounts (≈) assume the structure as drawn. Like-named read-outs stand apart in the source and are kept apart here.
Assays:
[1] = system: Leishmania (L.) infantum (MHOM/BR/74/PP75) promastigotes; assay: Anti-promastigote activity, MTT colorimetric assay; assay type: cell-based
Description: (§1) Promastigotes of Leishmania (V.) braziliensis (MHOM/BR/75/M2903) and Leishmania (L.) infantum (MHOM/BR/74/PP75) were grown in a biphasic medium. The solid phase was composed of Nicolle–Novy–MacNeals (NNN) medium with 15% defibrillated rabbit blood. Already in the liquid phase, we employed Roswell Park Memorial Institute (RPMI)-1640 (Sigma-Aldrich, St. Louis, USA) or Liver Infusion Tryptose (LIT) medium with 15% fetal bovine serum (Gibco – Thermo Fisher Scientific, Waltham USA), both supplemented with 1% of penicillin-streptomycin antibiotic solutions (10.000 U/mL of penicillin and 10.000 μg/mL of streptomycin; Gibco – Thermo Fisher Scientific, Waltham, USA). Cultures were maintained in an incubator at 25°C until parasites reached logarithmic phase (4 days). Next, the cultures were centrifuged and the pellet was suspended in RPMI-1640 or LIT for counting promastigotes using a Neubauer hemocytometer under an optical microscope (Axiostar Plus Carl Zeiss, Jena, Germany) at 400x magnification. Subsequently, parasites were diluted in RPMI-1640 or LIT medium at a final concentration of 1 x 10^6parasites/mL for use in antileishmanial assays.
(§2) The 50% inhibitory concentration (IC50) against L. (V.) braziliensis and L. (L.) infantum was evaluated by determination of the parasite viability using the colorimetric 3-(4,5-dimethylthiazol-2-yl)-2,5-diphenyltetrazolium bromide (MTT) method.[19] Initially, 100 μL of the promastigote suspension prepared in RPMI-1640 or LIT medium (1 × 10^6cells/mL) was added in each well of the 96-well microplate. Parasites were then treated with two-fold serial dilutions (from 3.12 to 400 µg/mL) of Bex-derived analogs prepared in 10% dimethyl sulfoxide (DMSO) (Sigma-Aldrich, St. Louis, USA) and the microplates were incubated at 25°C for 48 h. Next, 20 μL of MTT solution at 5 mg/mL (Sigma-Aldrich, St. Louis, USA) was added to the parasite cultures and the plates were covered with laminated paper and incubated at 37°C for 4 h. Finally, the plates were centrifuged at 1500 rpm for 15 min at 4°C (Heraeus-Megafuge 11R Centrifuge - Thermo Fisher Scientific, Waltham USA) and the formazan crystals formed were dissolved by the addition of 200 μL 10% DMSO. After further incubation for 5 min at room temperature, absorbance at 570 nm of samples measured using a microplate reader (Metller Toledo, Brazil). Meglumine antimoniate (Glucantime®Sanofi-aventis, France) and amphotericin B (Eurofarma, Brazil) were included as positive controls, and 10% DMSO solution was used as a solvent control. Samples containing RPM1-1640 or LIT only were used to control the sterility of media and samples containing inoculum and medium, but not compounds, were employed as growth controls.

[2] = system: Leishmania (V.) braziliensis (MHOM/BR/75/M2903) promastigotes; assay: Anti-promastigote activity, MTT colorimetric assay; assay type: cell-based
Description: as §1, §2

Cytotoxicity, MTT assay = assay type: cell-based; settings: hamster spleen cells, 48 h exposure
Description: (§3) Hamster spleen cells were used to test cytotoxicity. The cells were kindly provided by Dr. Rosy Iara Maciel de Azambuja Ribeiro from of Laboratory of Experimental Pathology/UFSJ. The cells were cultivated in saline solution (NaCl 0.9%; Synth, Brazil) and maintained at 37°C in an incubator with an atmosphere containing 5% CO2 (Thermo Fisher Scientific, Waltham, USA).
(§4) Cytotoxic concentration determinations for 50% of the cells in culture (CC50) were evaluated by using the colorimetric 3-(4,5-dimethylthiazol-2-yl)-2,5-diphenyltetrazolium bromide (MTT) method, following protocols outlined in a previous study.[19] Briefly, spleen cells were exposed for 48h to several concentrations of compounds (3, 6.25, 12.5, 25, 50, 100, 200, 400 and 800 µg/mL) and, afterward, the MTT assay was used to quantify the cell viability as was done using the anti-promastigote assay. Finally, CC50 values were calculated by linear regression analysis of absorbance values obtained previously.[20]
(§5) The selectivity of Bex analogs and antileishmanial agents was determined to evaluate the safety of compounds. Thus, the selectivity index (SI) was calculated through the ratio between the CC50 of compounds against the hamster spleen cells and the geometric mean (GM) of IC50 values calculated for L. (V.) braziliensis and L. (L.) infantum.[21] In the case where CC50 was higher than the highest concentration tested of the compound, to calculate the SI, the value used was 400. The larger SI was indicative of a safer molecule.

Staphylococcus aureus = system: Staphylococcus aureus; design: method as in PMID 16042337; settings: microdilution broth assays; cited from earlier work
Streptococcus mutans = system: Streptococcus mutans; design: method as in PMID 16042337; settings: microdilution broth assays; cited from earlier work
Escherichia coli = system: Escherichia coli; design: method as in PMID 16042337; settings: microdilution broth assays; cited from earlier work
Enterococcus faecalis = system: Enterococcus faecalis; design: method as in PMID 26166773; settings: disc diffusion, 2 mg/disk; cited from earlier work
Klebsiella pneumoniae = system: Klebsiella pneumoniae; design: method as in PMID 26166773; settings: disc diffusion, 2 mg/disk; cited from earlier work
Pseudomonas aeruginosa = system: Pseudomonas aeruginosa; design: method as in PMID 26166773; settings: disc diffusion, 2 mg/disk; cited from earlier work
Bacillus subtilis = system: Bacillus subtilis; design: method as in PMID 26166773; settings: disc diffusion, 2 mg/disk; cited from earlier work
[3] = system: S. aureus methicillin-resistant; design: method as in PMID 26166773; settings: disc diffusion, 2 mg/disk; cited from earlier work
[4] = system: E. coli extended-spectrum β-lactamases produced; design: method as in PMID 26166773; settings: disc diffusion, 2 mg/disk; cited from earlier work
[5] = system: rat mast cells stimulated with concanavalin A and sensitized with immunoglobulin E; design: method as in PMID 2453615; settings: cited from earlier work
[6] = system: reverse transcriptase from human immunodeficiency virus(HIV); settings: cited from earlier work
Hamster spleen cells = assay: Cytotoxicity, MTT assay; assay type: cell-based; settings: 48 h exposure
Description: as §3, §4, §5

[7] = geometric mean of IC50 in LIT and RPMI-1640, read-out: GM (geometric mean of IC50 values) L. infantum
[8] = promastigotes, LIT medium, 48 h, 25°C, MTT, read-out: IC50 L. infantum LIT
[9] = promastigotes, RPMI-1640 medium, 48 h, 25°C, MTT, read-out: IC50 L. infantum RPMI-1640
[10] = geometric mean of IC50 in LIT and RPMI-1640, read-out: GM (geometric mean of IC50 values) L. braziliensis
[11] = promastigotes, LIT medium, 48 h, 25°C, MTT, read-out: IC50 L. braziliensis LIT
[12] = promastigotes, RPMI-1640 medium, 48 h, 25°C, MTT, read-out: IC50 L. braziliensis RPMI-1640
[13] = geometric mean of IC50 in LIT and RPMI-1640
[14] = promastigotes, LIT medium, 48 h, 25°C, MTT
[15] = promastigotes, RPMI-1640 medium, 48 h, 25°C, MTT

Compound	IC50 [1, 7] [µg/mL]	IC50 [1, 8] [µg/mL]	IC50 [1, 9] [µg/mL]	IC50 [2, 10] [µg/mL]	IC50 [2, 11] [µg/mL]	IC50 [2, 12] [µg/mL]	CC50 at 48 h (Cytotoxicity, MTT assay) [µg/mL]	also measured
C[C@@H]1[C@H](O)[C@@H](C)/C=C/C=C/C=C/C=C/C=C/C=C/C=C/[C@H](O[C@@H]2O[C@H](C)[C@@H](O)[C@H](N)[C@@H]2O)C[C@@H]2O[C@](O)(C[C@@H](O)C[C@@H](O)[C@H](O)CC[C@@H](O)C[C@@H](O)CC(=O)O[C@H]1C)C[C@H](O)[C@H]2C(=O)O [ANFO, Amphotericin B, reference compound]	41.5 (≈ 45 µM)	41.6 ± 4.27 (≈ 45.1 µM)	41.5 ± 0.99 (≈ 44.9 µM)	33.4 (≈ 36.1 µM)	33.3 ± 3.66 (≈ 36 µM)	33.4 ± 3.01 (≈ 36.1 µM)	89.3 ± 2.24 (≈ 96.7 µM)	
O=c1[nH]c2ccccc2o1 [BOA, benzoxazolin-2-one]								Concentration exhibiting antibacterial effects (Staphylococcus aureus): 500 µg/mL; Concentration exhibiting antibacterial effects (Streptococcus mutans): 500 µg/mL; Concentration exhibiting antibacterial effects (Escherichia coli): 1,000 μg/mL
O=C1COc2ccccc2N1O [Bex1]		174 ± 3.39 (≈ 1050 µM)	188 ± 3.58 (≈ 1140 µM)		212 ± 6.04 (≈ 1280 µM)	238 ± 6.57 (≈ 1440 µM)		
CC1Oc2ccccc2N(O)C1=O (centres unmarked) [Bex2]	108 (≈ 605 µM)	106 ± 5.61 (≈ 592 µM)	111 ± 5.69 (≈ 620 µM)	106 (≈ 591 µM)	103 ± 4.36 (≈ 575 µM)	109 ± 4.44 (≈ 608 µM)	274.3 ± 1.87 (≈ 1530 µM)	
CCC1Oc2ccccc2N(O)C1=O (centres unmarked) [Bex3]	91 (≈ 471 µM)	89 ± 6.43 (≈ 461 µM)	93 ± 6.48 (≈ 481 µM)	94.5 (≈ 489 µM)	92 ± 6.19 (≈ 476 µM)	97 ± 6.24 (≈ 502 µM)	106 ± 2.26 (≈ 547 µM)	
O=C1C(O)Oc2ccccc2N1O (centres unmarked) [DIBOA, 2,4-dihydroxy-1,4-benzoxazin-3-one]								Concentration exhibiting antibacterial effects (Staphylococcus aureus): 500 µg/mL; Concentration exhibiting antibacterial effects (Streptococcus mutans): 500 µg/mL; Concentration exhibiting antibacterial effects (Escherichia coli): 1,000 μg/mL
COc1ccc2c(c1)OC(O)C(=O)N2O (centres unmarked) [DIMBOA, 2,4-dihydroxy-7-methoxy-1,4-benzoxazin-3-one]								Antibacterial activity (Enterococcus faecalis): active; Antibacterial activity (Klebsiella pneumoniae): active; Antibacterial activity (Pseudomonas aeruginosa): active; Antibacterial activity (Bacillus subtilis): active; Antibacterial activity [3]: active; Antibacterial activity [4]: active
O=C1Nc2ccccc2OC1O (centres unmarked) [HBOA, 2-hydroxy-1,4-benzoxazin-3-one]								Concentration exhibiting antibacterial effects (Staphylococcus aureus): 500 µg/mL; Concentration exhibiting antibacterial effects (Streptococcus mutans): 500 µg/mL; Concentration exhibiting antibacterial effects (Escherichia coli): 1,000 μg/mL; Effect on levels of histamine released from rat mast cells [5]: able to reduce levels of histamine
COc1ccc2c(c1)OC(O)C(=O)N2 (centres unmarked) [HMBOA]								Effect on levels of histamine released from rat mast cells [5]: able to reduce levels of histamine
COc1ccc2[nH]c(=O)oc2c1 [MBOA, 6-methoxy-benzoxazolin-2-one]								Inhibition of HIV reverse transcriptase [6]: able to inhibit; Effect on levels of histamine released from rat mast cells [5]: able to reduce levels of histamine
O=C1COc2cccnc2N1O [Pyr1]	101 (≈ 608 µM)	99 ± 5.61 (≈ 596 µM)	103 ± 5.64 (≈ 620 µM)	111 (≈ 671 µM)	108 ± 5.91 (≈ 650 µM)	115 ± 6.04 (≈ 692 µM)	> 400	
CC1Oc2cccnc2N(O)C1=O (centres unmarked) [Pyr2]	115 (≈ 638 µM)	112 ± 5.34 (≈ 622 µM)	118 ± 5.45 (≈ 655 µM)	102 (≈ 569 µM)	100 ± 5.18 (≈ 555 µM)	105 ± 5.23 (≈ 583 µM)	> 400	
CCC1Oc2cccnc2N(O)C1=O (centres unmarked) [Pyr3]		149 ± 6.35 (≈ 767 µM)	160 ± 6.62 (≈ 824 µM)		141 ± 5.94 (≈ 726 µM)	152 ± 6.17 (≈ 783 µM)		
CCCC1Oc2cccnc2N(O)C1=O (centres unmarked) [Pyr4]	93 (≈ 447 µM)	91 ± 6 (≈ 437 µM)	95 ± 6.05 (≈ 456 µM)	100 (≈ 483 µM)	98 ± 5.94 (≈ 471 µM)	103 ± 5.99 (≈ 495 µM)	202 ± 2.11 (≈ 969 µM)	
CCCCC1Oc2cccnc2N(O)C1=O (centres unmarked) [Pyr5]		135 ± 4.13 (≈ 607 µM)	143 ± 4.25 (≈ 643 µM)		142 ± 3.67 (≈ 639 µM)	154 ± 3.85 (≈ 693 µM)		
Meglumine antimoniate [reference compound]								GM (geometric mean of IC50 values) L. infantum [1, 13]: 99.47 µg/mL; IC50 L. infantum LIT [1, 14]: 97 ± 3.14 µg/mL; IC50 L. infantum RPMI-1640 [1, 15]: 102 ± 3.54 µg/mL; GM (geometric mean of IC50 values) L. braziliensis [2, 13]: 97.5 µg/mL; IC50 L. braziliensis LIT [2, 14]: 97 ± 4.34 µg/mL; IC50 L. braziliensis RPMI-1640 [2, 15]: 98 ± 4.45 µg/mL; CC50 (Hamster spleen cells): >400 µg/mL

Source: article PMC6983991, “Toxicity and Anti-promastigote Activity of Benzoxazinoid Analogs Against Leishmania (Viannia) braziliensis and Leishmania (Leishmania) infantum” (Advanced Pharmaceutical Bulletin, 2019)
